According to patent publication EP0165781A1, “Aromatase inhibiting N-substituted imidazole derivatives” (ELI LILLY AND COMPANY, priority 1984, dated 1985):

Target: T1, aromatase (Rattus norvegicus, UniProt P22443)
T1 construct: ovarian microsomes are obtained from rats treated with pregnant mares serum gonadotropin; from tissue; host or cells: ovarian microsomes of rats treated with pregnant mares serum gonadotropin
T1 sequence (P22443 1-508): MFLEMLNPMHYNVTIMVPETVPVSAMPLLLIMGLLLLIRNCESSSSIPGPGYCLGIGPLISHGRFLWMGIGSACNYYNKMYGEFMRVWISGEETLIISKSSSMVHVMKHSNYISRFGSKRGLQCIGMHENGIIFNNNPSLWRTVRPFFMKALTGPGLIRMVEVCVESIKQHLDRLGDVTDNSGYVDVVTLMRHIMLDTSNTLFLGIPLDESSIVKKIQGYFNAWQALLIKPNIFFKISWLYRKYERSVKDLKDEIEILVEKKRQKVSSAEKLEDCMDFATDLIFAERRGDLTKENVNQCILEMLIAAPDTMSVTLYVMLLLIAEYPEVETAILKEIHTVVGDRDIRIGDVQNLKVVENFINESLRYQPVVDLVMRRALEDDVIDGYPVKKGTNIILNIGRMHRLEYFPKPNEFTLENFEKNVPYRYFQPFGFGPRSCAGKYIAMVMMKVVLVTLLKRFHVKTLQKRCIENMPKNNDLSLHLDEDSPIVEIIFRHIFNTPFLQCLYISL
Assay: isolated rat ovarian microsome aromatase inhibition (modified method of Brodie et al.)
Type: biochemical
Details: rat ovarian microsomes; substrate androstenedione 0.1 µM; [3H]-H2O release; NADPH generating system; read-out: concentration of inhibitor required to produce a 50% inhibition of enzyme activity (EC50)
Description: In this test system, ovarian microsomes are obtained from rats treated with pregnant mares serum gonadotropin. Test compounds are added to reaction vials containing […] 4-androstene-3,17-dione, 100,000 dpm 1,2[^3H]-androstenedione, the microsomes and a NADPH generating system. The concentrations of the inhibitors tested ranged between […]. […] Potency is determined based on the concentration of inhibitor in µM required to produce a 50% inhibition of enzyme activity (EC50) when the concentration of substrate (androstenedione) is 0.1 µM.

EC50: 1100 nM
SMILES: CC(=O)N1CCN(c2ccc(OCC3COC(Cn4ccnc4)(c4ccc(Cl)cc4Cl)O3)cc2)CC1 (stereo not shown) [ketoconazole, 1-acetyl-4-[4-([2-(2,4-dichlorophenyl)-2-(1H-imidazol-1-ylmethyl)-1,3-dioxolan-4-yl]methoxy)-phenyl]piperazine]
